Results reported in patent US20250059182A1, “SOS1 INHIBITORS” (Mirati Therapeutics, Inc., priority 2021, published 2025).
Like-named read-outs stand apart in the source and are kept apart here.

Experiments:
[1] = system: pERK in MKN1 cells; experiment: pERK inhibition, In-Cell Western (LI-COR Odyssey), MKN1 cells; type: cell-based; settings: MKN1 or H358 cells (table does not say which), 0.5-1 hour incubation, read-out: IC50 (nM), pERK inhibition
Outline: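 MKN1 cells were exposed for about 0.5–1 h at 37 °C to nine 3-fold dilutions starting at 10 µM. Cells were then fixed in formaldehyde, permeabilised with methanol, and immunostained for pERK and GAPDH with near-infrared secondary antibodies. GAPDH-normalised pERK signal relative to vehicle gave % inhibition, from which IC50 was fitted.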

[2] = target: T1, recombinant human SOS1 polypeptide (amino acids 560-1049) (Homo sapiens, UniProt Q07889); experiment: HTRF displacement assay: inhibition of labeled tracer binding to SOS1; settings: Table A, Morrison equation for competitive binding
T1 construct: corresponding to amino acids 560-1049, expressed in E. Coli; made in house; host or cells: E. coli
T1 sequence (Q07889 560-1049): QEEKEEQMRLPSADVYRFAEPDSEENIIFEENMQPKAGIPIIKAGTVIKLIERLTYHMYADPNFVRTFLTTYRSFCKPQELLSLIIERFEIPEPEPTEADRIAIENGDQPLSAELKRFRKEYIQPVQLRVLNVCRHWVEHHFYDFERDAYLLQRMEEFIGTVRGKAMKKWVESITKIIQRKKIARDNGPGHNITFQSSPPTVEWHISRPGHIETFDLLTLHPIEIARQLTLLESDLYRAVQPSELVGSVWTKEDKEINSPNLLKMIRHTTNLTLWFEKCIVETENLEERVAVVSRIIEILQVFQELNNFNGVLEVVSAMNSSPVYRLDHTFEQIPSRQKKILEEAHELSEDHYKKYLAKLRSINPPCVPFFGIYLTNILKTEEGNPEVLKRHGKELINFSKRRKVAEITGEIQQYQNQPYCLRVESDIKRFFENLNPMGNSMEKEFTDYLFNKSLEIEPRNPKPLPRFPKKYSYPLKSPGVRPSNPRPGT

Structure (SMILES): Cc1c(C#N)cccc1[C@@H](C)Nc1nnc(C)c2cnc(N3CCN(C(=O)[C@@H]4CCCCN4C)CC3)cc12 [Example 2-7, 2-methyl-3-((R)-1-((4-methyl-7-(4-((S)-1-methylpiperidine-2-carbonyl)piperazin-1-yl)pyrido[3,4-d]pyridazin-1-yl)amino)ethyl)benzonitrile]
- IC50 ([1]; Homo sapiens, MKN-1, Table B): 139 nM
- Ki [2]: 0.545 nM

Structure (SMILES): Cc1c(C#N)cccc1[C@@H](C)Nc1nnc(C)c2cnc(N3CCN(C(=O)[C@H]4CCCCN4C)CC3)cc12 [Example 2-8, 2-methyl-3-((R)-1-((4-methyl-7-(4-((R)-1-methylpiperidine-2-carbonyl)piperazin-1-yl)pyrido[3,4-d]pyridazin-1-yl)amino)ethyl)benzonitrile]
- IC50 ([1]; Homo sapiens, MKN-1, Table B): 211 nM
- Ki [2]: 0.67 nM

Structure (SMILES): Cc1c(C#N)cccc1[C@@H](C)Nc1nnc(C)c2cnc(-c3ccc(CN(C)C)cc3)cc12 [Example 3-1, (R)-3-(1-((7-(4-((dimethylamino)methyl)phenyl)-4-methylpyrido[3,4-d]pyridazin-1-yl)amino)ethyl)-2-methylbenzonitrile]
- IC50 ([1]; Homo sapiens, MKN-1, Table B): 192 nM
- Ki [2]: 6.11 nM

Structure (SMILES): Cc1c(C#N)cccc1[C@@H](C)Nc1nnc(C)c2cnc(C3=CCN(C)CC3)cc12 [Example 3-2, (R)-2-methyl-3-(1-((4-methyl-7-(1-methyl-1,2,3,6-tetrahydropyridin-4-yl)pyrido[3,4-d]pyridazin-1-yl)amino)ethyl)benzonitrile]
- IC50 ([1]; Homo sapiens, MKN-1, Table B): 124 nM
- Ki [2]: 11.5 nM

Structure (SMILES): CCN1CCN(c2cc3c(N[C@H](C)c4cccc(C#N)c4C)nnc(C)c3cc2F)CC1 [Example 4-1, (R)-3-(1-((7-(4-ethylpiperazin-1-yl)-6-fluoro-4-methylphthalazin-1-yl)amino)ethyl)-2-methylbenzonitrile]
- IC50 ([1]; Homo sapiens, MKN-1, Table B): 82.7 nM
- Ki [2]: 1.73 nM

Structure (SMILES): Cc1c(C#N)cccc1[C@@H](C)Nc1nnc(C)c2cc(F)c(N3CC4(COC4)C3)cc12 [Example 4-2, (R)-3-(1-((6-fluoro-4-methyl-7-(2-oxa-6-azaspiro[3.3]heptan-6-yl)phthalazin-1-yl)amino)ethyl)-2-methylbenzonitrile]
- IC50 ([1]; Homo sapiens, MKN-1, Table B): 64 nM
- Ki [2]: 5.85 nM

Structure (SMILES): Cc1c(C#N)cccc1[C@@H](C)Nc1nnc(C)c2cc(F)c(N(C)C3CCN(C)CC3)cc12 [Example 4-3, (R)-3-(1-((6-fluoro-4-methyl-7-(methyl(1-methylpiperidin-4-yl)amino)phthalazin-1-yl)amino)ethyl)-2-methylbenzonitrile]
- IC50 ([1]; Homo sapiens, MKN-1, Table B): 150 nM
- Ki [2]: 3.34 nM

Structure (SMILES): Cc1c(C#N)cccc1[C@@H](C)Nc1nnc(C)c2cc(F)c(N3CCC34CN(C)C4)cc12 [Example 4-4, (R)-3-(1-((6-fluoro-4-methyl-7-(6-methyl-1,6-diazaspiro[3.3]heptan-1-yl)phthalazin-1-yl)amino)ethyl)-2-methylbenzonitrile]
- IC50 ([1]; Homo sapiens, MKN-1, Table B): 39.6 nM
- Ki [2]: 0.892 nM

Structure (SMILES): Cc1nnc(N[C@H](C)c2cccc(C(F)(F)F)c2F)c2cc(N3CCC34CN(C)C4)c(F)cc12 [Example 4-5, (R)-6-fluoro-N-(1-(2-fluoro-3-(trifluoromethyl)phenyl)ethyl)-4-methyl-7-(6-methyl-1,6-diazaspiro[3.3]heptan-1-yl)phthalazin-1-amine]
- IC50 ([1]; Homo sapiens, MKN-1, Table B): 103 nM
- Ki [2]: 0.585 nM

Structure (SMILES): Cc1nnc(N[C@H](C)c2cccc(C(F)(F)F)c2F)c2cc(N3CCOCC3)c(F)cc12 [Example 4-6, (R)-6-fluoro-N-(1-(2-fluoro-3-(trifluoromethyl)phenyl)ethyl)-4-methyl-7-morpholinophthalazin-1-amine]
- IC50 ([1]; Homo sapiens, MKN-1, Table B): 176 nM
- Ki [2]: 12.3 nM

Structure (SMILES): Cc1nnc(N[C@H](C)c2cccc(C(F)(F)F)c2F)c2cc(N3CCN(C)CC3)c(F)cc12 [Example 4-7, (R)-6-fluoro-N-(1-(2-fluoro-3-(trifluoromethyl)phenyl)ethyl)-4-methyl-7-(4-methylpiperazin-1-yl)phthalazin-1-amine]
- IC50 ([1]; Homo sapiens, MKN-1, Table B): 110 nM
- Ki [2]: 1.06 nM

Structure (SMILES): Cc1c(C#N)cccc1[C@@H](C)Nc1nnc(C)c2cc(F)c(N3CC4(CN(C)C4)C3)cc12 [Example 4-9, (R)-3-(1-((6-fluoro-4-methyl-7-(6-methyl-2,6-diazaspiro[3.3]heptan-2-yl)phthalazin-1-yl)amino)ethyl)-2-methylbenzonitrile]
- IC50 ([1]; Homo sapiens, MKN-1, Table B): 24.1 nM
- Ki [2]: 0.343 nM

Structure (SMILES): Cc1nnc(N[C@H](C)c2cccc(C(F)(F)F)c2F)c2cc(N3CC4(COC4)C3)c(F)cc12 [Example 4-10, (R)-6-fluoro-N-(1-(2-fluoro-3-(trifluoromethyl)phenyl)ethyl)-4-methyl-7-(2-oxa-6-azaspiro[3.3]heptan-6-yl)phthalazin-1-amine]
- IC50 ([1]; Homo sapiens, MKN-1, Table B): 141 nM
- Ki [2]: 2.4 nM

Structure (SMILES): Cc1c(C#N)cccc1[C@@H](C)Nc1nnc(C)c2cc(F)c(N3CCN4CCOC[C@@H]4C3)cc12 [Example 4-11, 3-((R)-1-((6-fluoro-7-((S)-hexahydropyrazino[2,1-c][1,4]oxazin-8(1H)-yl)-4-methylphthalazin-1-yl)amino)ethyl)-2-methylbenzonitrile]
- IC50 ([1]; Homo sapiens, MKN-1, Table B): 162 nM
- Ki [2]: 5.77 nM

Structure (SMILES): Cc1c(C#N)cccc1[C@@H](C)Nc1nnc(C)c2cc(F)c(N3C[C@@H]4C[C@H]3CO4)cc12 [Example 4-13, 3-((R)-1-((7-((1S,4S)-2-oxa-5-azabicyclo[2.2.1]heptan-5-yl)-6-fluoro-4-methylphthalazin-1-yl)amino)ethyl)-2-methylbenzonitrile]
- IC50 ([1]; Homo sapiens, MKN-1, Table B): 165 nM
- Ki [2]: 16.1 nM

Structure (SMILES): Cc1c(C#N)cccc1[C@@H](C)Nc1nnc(C)c2cc(F)c(N3C[C@@H]4C[C@H]3CN4C)cc12 [Example 4-14, 3-((R)-1-((6-fluoro-4-methyl-7-((1S,4S)-5-methyl-2,5-diazabicyclo[2.2.1]heptan-2-yl)phthalazin-1-yl)amino)ethyl)-2-methylbenzonitrile]
- IC50 ([1]; Table B): 41.6 nM
- Ki [2]: 1.16 nM

Structure (SMILES): Cc1c(C#N)cccc1[C@@H](C)Nc1nnc(C)c2cc(F)c(N3C[C@H]4C[C@@H]3CO4)cc12 [Example 4-15, 3-((R)-1-((7-((1R,4R)-2-oxa-5-azabicyclo[2.2.1]heptan-5-yl)-6-fluoro-4-methylphthalazin-1-yl)amino)ethyl)-2-methylbenzonitrile]
- IC50 ([1]; Homo sapiens, MKN-1, Table B): 37.8 nM
- Ki [2]: 4.66 nM

Structure (SMILES): Cc1nnc(N[C@H](C)c2cccc(C(C)(F)F)c2F)c2cc(N3CCN(C)CC3)c(F)cc12 [Example 4-16, (R)-N-(1-(3-(1,1-difluoroethyl)-2-fluorophenyl)ethyl)-6-fluoro-4-methyl-7-(4-methylpiperazin-1-yl)phthalazin-1-amine]
- IC50 ([1]; Homo sapiens, MKN-1, Table B): 52 nM
- Ki [2]: 0.742 nM

Structure (SMILES): COCCN(C)c1cc2c(N[C@H](C)c3cccc(C#N)c3C)nnc(C)c2cc1F [Example 4-17, (R)-3-(1-((6-fluoro-7-((2-methoxyethyl)(methyl)amino)-4-methylphthalazin-1-yl)amino)ethyl)-2-methylbenzonitrile]
- IC50 ([1]; Homo sapiens, MKN-1, Table B): 814 nM
- Ki [2]: 9.16 nM

Structure (SMILES): Cc1c(C#N)cccc1[C@@H](C)Nc1nnc(C)c2cc(F)c(N3CCN(C)C(C)(C)C3)cc12 [Example 4-18, (R)-3-(1-((6-fluoro-4-methyl-7-(3,3,4-trimethylpiperazin-1-yl)phthalazin-1-yl)amino)ethyl)-2-methylbenzonitrile]
- IC50 ([1]; Homo sapiens, MKN-1, Table B): 118 nM
- Ki [2]: 1.42 nM

Structure (SMILES): Cc1c(C#N)cccc1[C@@H](C)Nc1nnc(C)c2cc(F)c(N3CCS(=O)(=O)CC3)cc12 [Example 4-19, (R)-3-(1-((7-(1,1-dioxidothiomorpholino)-6-fluoro-4-methylphthalazin-1-yl)amino)ethyl)-2-methylbenzonitrile]
- IC50 ([1]; Homo sapiens, MKN-1, Table B): 551 nM
- Ki [2]: 3.53 nM
